Reference: EPA's ToxValDB 9.5

Legend:
[1] = system: Mus musculus
[2] = system: Rattus norvegicus; details: developmental; duration: 14 days; oral; gavage; M/F; Crl:CD(SD); generation: F1; F1: Developmental: Bone: Skeletal Malformation + F1: Developmental: Whole Body: Nursing Behavior + F1: Developmental: Whole Body: Pup Weight…
[3] = developmental, duration: 54 days, oral, gavage, M/F, CD1, generation: F1, F1: Developmental: Eye: Eye Opening + F1: Developmental: Liver: Liver, Discolored + F1: Developmental: Whole Body: Fetus Or Pup/Neonate, …
[4] = reproduction developmental, duration: 14 days, oral, gavage, F, Crl:CD-1 (ICR) BR, generation: P0, P0: Blood: Hematocrit (HCT) + P0: Blood: Hemoglobin (HGB) + P0: Blood: Lymphocyte + P0: Blood: Monocytes + P0: Blood: Neutrophils + P0: …
[5] = reproduction developmental, duration: 14 days, oral, gavage, F, Crl:CD-1 (ICR) BR, generation: P0, P0: Liver: Hepatocellular Hypertrophy
[6] = reproduction developmental, duration: 14 days, oral, gavage, M/F, Crl:CD-1 (ICR) BR, generation: P0, P0: Eye: Eye Opening + P0: Whole Body: Lactation Index + P0: Whole Body: Pup Mortality + P0: Whole Body: Pup Weight Relative to Litter
[7] = reproduction developmental, duration: 54 days, oral, gavage, F, CD1, generation: P0, P0: Developmental: Uterus: Implantation + P0: Developmental: Whole Body: No. Male Pups per No. of Pups Sexed
[8] = reproduction developmental, duration: 54 days, oral, gavage, F, CD1, generation: P0, P0: Developmental: Uterus: Implantation + P0: Developmental: Whole Body: No. Male Pups per No. of Pups Sexed + P0: Reproductive: Whole Body…
[9] = reproduction developmental, duration: 109 days, oral, gavage, M, Crl:CD-1 (ICR) BR, generation: P0, P0: Blood: Hematocrit (HCT) + P0: Blood: Hemoglobin (HGB) + P0: Blood: Sorbitol Dehydrogenase (SDH), Blood + P0: Kidney: Blood Urea Nitrogen…
[10] = reproduction developmental, duration: 109 days, oral, gavage, M, Crl:CD-1 (ICR) BR, generation: P0, P0: Hepatic: Liver: Alanine Aminotransferase (ALT), Blood + P0: Hepatic: Liver: Alkaline Phosphatase (ALP), Blood + P0: Hepatic: Liver: …
[11] = reproduction developmental, duration: 109 days, oral, gavage, M, Crl:CD-1 (ICR) BR, generation: P0, P0: Liver: Hepatocellular Hypertrophy
[12] = reproduction developmental, multiple, M, Crl:CD-1 (ICR) BR, generation: F1, F1: Reproductive: Prepuce: Preputial Separation + F1: Whole Body: Whole Body: Body Weight Change + F1: Whole Body: Whole Body: Feed …
[13] = reproduction developmental, multiple, M, Crl:CD-1 (ICR) BR, generation: F1, F1: Whole Body: Whole Body: Body Weight Change + F1: Whole Body: Whole Body: Feed Consumption, Absolute
[14] = reproduction developmental, oral, gavage, F, CD1, generation: P0, P0: Blood: Hematocrit (HCT) + P0: Blood: Hemoglobin (HGB) + P0: Blood: Lymphocyte + P0: Blood: Monocytes + P0: Blood: Neutrophils + P0: …
[15] = reproduction developmental, oral, gavage, F, CD1, generation: P0, P0: Liver: Alanine Aminotransferase (ALT), Blood + P0: Liver: Alkaline Phosphatase (ALP), Blood + P0: Liver: Aspartate Aminotransferase (AST…
[16] = reproduction developmental, oral, gavage, F, Crl:CD-1 (ICR) BR, generation: P0, P0: Hepatic: Liver: Alanine Aminotransferase (ALT), Blood + P0: Hepatic: Liver: Alkaline Phosphatase (ALP), Blood + P0: Hepatic: Liver: …
[17] = reproduction developmental, oral, gavage, M, CD1, generation: P0, P0: Blood: Cholesterol (CHOL), Total + P0: Blood: Hematocrit (HCT) + P0: Blood: Hemoglobin (HGB) + P0: Blood: Lymphocyte + P0: Blood: …

## OCCC(F)(F)C(F)(F)C(F)(F)C(F)(F)C(F)(F)C(F)(F)F [2-(Perfluorohexyl)ethanol]
[1]; [3]
  LOAEL: 120 mg/kg-day
  NOAEL: 25 mg/kg-day
[1]; developmental, oral, gavage, M/F, CD1, generation: F1, F1: Eye: Eye Opening + F1: Liver: Liver, Discolored + F1: Prepuce or Vagina: Preputial Separation or Vaginal Patency + F1: Whole Body: Fetus…
  NEL: 25 mg/kg-day
[1]; developmental, oral, gavage, M/F, CD1, generation: F1, F1: Eye: Eye Opening + F1: Liver: Liver, Discolored + F1: Whole Body: Fetus Or Pup/Neonate, Small + F1: Whole Body: Lactation Index + F1: …
  LEL: 100 mg/kg-day
[1]; [4]
  LEL: 100 mg/kg-day
  NEL: 25 mg/kg-day
[1]; reproduction developmental, duration: 14 days, oral, gavage, F, Crl:CD-1 (ICR) BR, generation: P0, P0: Kidney: Kidney Weight, Absolute + P0: Liver: Liver Weight, Absolute + P0: Liver: Total Bilirubin (TBILI), Blood + P0: Liver: Total …
  NEL: 100 mg/kg-day
[1]; [5]
  LEL: 5 mg/kg-day
  NEL: 1 mg/kg-day
[1]; [6]
  LEL: 100 mg/kg-day
  NEL: 25 mg/kg-day
[1]; reproduction developmental, duration: 14 days, oral, gavage, M/F, Crl:CD-1 (ICR) BR, generation: P0, P0: Whole Body: Live Pups Born + P0: Whole Body: Male Pups per Pups Sexed + P0: Whole Body: Viability Index
  NEL: 100 mg/kg-day
[1]; reproduction developmental, duration: 42 days, multiple, F, Crl:CD-1 (ICR) BR, generation: P0, P0: Vagina: Vaginal Patency + P0: Whole Body: Body Weight Change + P0: Whole Body: Feed Consumption, Absolute
  NEL: 25 mg/kg-day
[1]; reproduction developmental, duration: 42 days, multiple, M, Crl:CD-1 (ICR) BR, generation: P0, P0: Prepuce: Preputial Separation + P0: Whole Body: Body Weight Change + P0: Whole Body: Feed Consumption, Absolute
  NEL: 25 mg/kg-day
[1]; [7]
  LOAEL: 120 mg/kg-day
  NOAEL: 25 mg/kg-day
[1]; [8]
  LOAEL: 120 mg/kg-day
  NOAEL: 25 mg/kg-day
[1]; reproduction developmental, duration: 54 days, oral, gavage, F, CD1, generation: P0, P0: Reproductive: Whole Body: Fertility Index + P0: Reproductive: Whole Body: Gestation Index + P0: Reproductive: Whole Body: Percent Mating
  NOAEL: 120 mg/kg-day
[1]; reproduction developmental, duration: 54 days, oral, gavage, M/F, CD1, generation: F1, F1: Reproductive: Prepuce or Vagina: Preputial Separation or Vaginal Patency
  NOAEL: 120 mg/kg-day
[1]; reproduction developmental, duration: 54 days, oral, gavage, M, CD1, generation: P0, P0: Reproductive: Whole Body: Fertility Index + P0: Reproductive: Whole Body: Percent Mating
  LOAEL: 120 mg/kg-day
[1]; [9]
  LEL: 100 mg/kg-day
  NEL: 25 mg/kg-day
[1]; reproduction developmental, duration: 109 days, oral, gavage, M, Crl:CD-1 (ICR) BR, generation: P0, P0: Blood: Lymphocyte + P0: Blood: Monocytes + P0: Blood: Neutrophils + P0: Blood: Red Blood Cell (RBC) + P0: Blood: Reticulocytes + P0: …
  NEL: 100 mg/kg-day
[1]; [10]
  LOAEL: 5 mg/kg-day
  NOAEL: 1 mg/kg-day
[1]; [11]
  LEL: 5 mg/kg-day
  NEL: 1 mg/kg-day
[1]; reproduction developmental, duration: 109 days, oral, gavage, M, Crl:CD-1 (ICR) BR, generation: P0, P0: Reproductive: Epididymis: Epididymis Weight, Absolute + P0: Reproductive: Epididymis: Epididymis Weight, Relative + P0: Reproductive: …
  NOAEL: 100 mg/kg-day
[1]; reproduction developmental, multiple, M, Crl:CD-1 (ICR) BR, generation: F1, F1: Reproductive: Prepuce: Preputial Separation
  NOAEL: 100 mg/kg-day
[1]; [12]
  LOAEL: 5 mg/kg-day
  NOAEL: 1 mg/kg-day
[1]; [13]
  LOAEL: 100 mg/kg-day
  NOAEL: 25 mg/kg-day
[1]; reproduction developmental, oral, gavage, F, CD1, generation: P0, P0: Blood: Calcium (CA), Blood + P0: Blood: Chloride (CL), Blood + P0: Blood: Globulin (G), Blood + P0: Blood: Glucose (GLU), Blood + P0: …
  NEL: 100 mg/kg-day
[1]; [14]
  LEL: 100 mg/kg-day
  NEL: 25 mg/kg-day
[1]; [15]
  LEL: 25 mg/kg-day
  NEL: 5 mg/kg-day
[1]; reproduction developmental, oral, gavage, F, CD1, generation: P0, P0: Uterus: Implantation + P0: Whole Body: Fertility Index + P0: Whole Body: Gestation Index + P0: Whole Body: Male Pups per Pups Sexed + P0…
  NEL: 100 mg/kg-day
[1]; [16]
  LOAEL: 5 mg/kg-day
  NOAEL: 1 mg/kg-day
[1]; reproduction developmental, oral, gavage, M/F, CD1, generation: F1, F1: Whole Body: Live Pups Born + F1: Whole Body: Viability Index
  NEL: 100 mg/kg-day
[1]; reproduction developmental, oral, gavage, M, CD1, generation: P0, P0: Blood: Calcium (CA), Blood + P0: Blood: Globulin (G) + P0: Blood: Glucose (GLU) + P0: Blood: Inorganic Phosphorous (PHOS) + P0: Blood: …
  NEL: 100 mg/kg-day
[1]; [17]
  LEL: 100 mg/kg-day
  NEL: 25 mg/kg-day
[1]; reproduction developmental, oral, gavage, M, CD1, generation: P0, P0: Whole Body: Fertility Index + P0: Whole Body: Percent Mating
  NEL: 100 mg/kg-day
[2]
  LOAEL: 225 mg/kg-day
